Measured values: ChEMBL document CHEMBL1201862, “PubChem BioAssay data set” (2004)
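Protocol summary: plate cells (96-well), add compound at 5 concentrations, incubate 48 h, interpolate endpoints linearly. The concentration for 50% growth inhibition is given as GI50.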 Active and inactive are the calls of the source. Rule as the data show it: active = GI50 up to about 1.1 µM and inactive = higher.

Key:
Assay in all cases: NCI tumour cell line growth inhibition, 48 h
[1] = tested on: SF-295
[2] = tested on: SW-620
[3] = tested on: SN12C
[4] = tested on: NCI-H23
[5] = tested on: CCRF-CEM
[6] = tested on: EKVX
[7] = tested on: SK-MEL-5
[8] = tested on: UACC-62
[9] = tested on: OVCAR-3
[10] = tested on: MOLT-4
[11] = tested on: SK-OV-3
[12] = tested on: COLO 205
[13] = tested on: SK-MEL-2
[14] = tested on: SNB-19
[15] = tested on: SR
[16] = tested on: HOP-92

Structure (SMILES)	GI50 [1]	GI50 [2]	GI50 [3]	GI50 [4]	GI50 [5]	GI50 [6]	GI50 [7]	GI50 [8]	GI50 [9]	GI50 [10]	GI50 [11]	GI50 [12]	GI50 [13]	GI50 [14]	GI50 [15]	GI50 [16]
C=CCN(N=O)C(=O)N(CCCC(NC(C)=O)C(=O)NCc1ccccc1)Cc1ccccc1 (stereo not drawn)	38.5 µM (inactive)	61.4 µM (inactive)	67.6 µM (inactive)	> 100 µM (inactive)	28.2 µM (inactive)	58.2 µM (inactive)	31.1 µM (inactive)	49.8 µM (inactive)	31 µM (inactive)	16.9 µM (inactive)	> 100 µM (inactive)	90.4 µM (inactive)	> 100 µM (inactive)	82.6 µM (inactive)	–	–
COc1ccccc1NC(=O)CC(=O)NNCC(=O)Nc1nnc(-c2ccccc2)o1	> 100 µM (inactive)	> 100 µM (inactive)	> 100 µM (inactive)	> 100 µM (inactive)	–	> 100 µM (inactive)	> 100 µM (inactive)	> 100 µM (inactive)	> 100 µM (inactive)	> 100 µM (inactive)	> 100 µM (inactive)	> 100 µM (inactive)	> 100 µM (inactive)	> 100 µM (inactive)	> 100 µM (inactive)	–
CCN(CC)c1ccc(/N=C2/C=CC(=C(C#N)C#N)c3ccccc32)c(C)c1	2.28 µM (inactive)	1.58 µM (inactive)	2.53 µM (inactive)	1.58 µM (inactive)	1.18 µM (inactive)	3.21 µM (inactive)	1.58 µM (inactive)	1.38 µM (inactive)	1.86 µM (inactive)	1.96 µM (inactive)	3.83 µM (inactive)	2.64 µM (inactive)	2.08 µM (inactive)	3.78 µM (inactive)	–	0.324 µM (active)
COc1ccc(NC(=O)NS(=O)(=O)c2ccc(C)cc2)nn1	> 100 µM (inactive)	> 100 µM (inactive)	> 100 µM (inactive)	> 100 µM (inactive)	> 100 µM (inactive)	> 100 µM (inactive)	> 100 µM (inactive)	> 100 µM (inactive)	> 100 µM (inactive)	> 100 µM (inactive)	> 100 µM (inactive)	> 100 µM (inactive)	> 100 µM (inactive)	> 100 µM (inactive)	–	> 100 µM (inactive)
c1ccc2c(c1)Sc1ccccc1N2C1CN2CCC1CC2 (stereo not drawn)	15.3 µM (inactive)	16.4 µM (inactive)	14.2 µM (inactive)	24.5 µM (inactive)	16.5 µM (inactive)	13 µM (inactive)	15.6 µM (inactive)	15.2 µM (inactive)	15.8 µM (inactive)	12.8 µM (inactive)	19.5 µM (inactive)	16.8 µM (inactive)	4.46 µM (inactive)	18.8 µM (inactive)	–	–
CCOc1ccc(/N=C/c2cccc3cccnc23)cc1	> 100 µM (inactive)	50.5 µM (inactive)	> 100 µM (inactive)	> 100 µM (inactive)	62.5 µM (inactive)	> 100 µM (inactive)	> 100 µM (inactive)	> 100 µM (inactive)	> 100 µM (inactive)	45.3 µM (inactive)	> 100 µM (inactive)	> 100 µM (inactive)	> 100 µM (inactive)	> 100 µM (inactive)	–	> 100 µM (inactive)
CSc1nc(-c2ccccc2)nc(N2CCOCC2)[s+]1	–	> 100 µM (inactive)	> 100 µM (inactive)	> 100 µM (inactive)	22.3 µM (inactive)	> 100 µM (inactive)	> 100 µM (inactive)	28.6 µM (inactive)	> 100 µM (inactive)	26.8 µM (inactive)	> 100 µM (inactive)	37 µM (inactive)	> 100 µM (inactive)	> 100 µM (inactive)	16.6 µM (inactive)	–
CC1(C)OC(COCCOCCCCCO)C(COCCOCCCCCO)O1 (stereo not drawn)	> 100 µM (inactive)	> 100 µM (inactive)	> 100 µM (inactive)	> 100 µM (inactive)	–	> 100 µM (inactive)	> 100 µM (inactive)	82.6 µM (inactive)	> 100 µM (inactive)	> 100 µM (inactive)	> 100 µM (inactive)	> 100 µM (inactive)	> 100 µM (inactive)	> 100 µM (inactive)	> 100 µM (inactive)	–
C=CCN(N=O)C(=O)N(CCC)CCCC(NC(C)=O)C(=O)NCc1ccccc1 (stereo not drawn)	> 100 µM (inactive)	> 100 µM (inactive)	> 100 µM (inactive)	> 100 µM (inactive)	> 100 µM (inactive)	> 100 µM (inactive)	> 100 µM (inactive)	> 100 µM (inactive)	> 100 µM (inactive)	> 100 µM (inactive)	> 100 µM (inactive)	> 100 µM (inactive)	> 100 µM (inactive)	> 100 µM (inactive)	–	–
CC1CC(c2ccccc2)=Nc2ccccc2S1(=O)=O (stereo not drawn)	20.2 µM (inactive)	16.2 µM (inactive)	16.6 µM (inactive)	16.6 µM (inactive)	19.7 µM (inactive)	20.4 µM (inactive)	17.9 µM (inactive)	20.5 µM (inactive)	18.5 µM (inactive)	16.8 µM (inactive)	19.7 µM (inactive)	20.4 µM (inactive)	14.8 µM (inactive)	14.3 µM (inactive)	–	27.9 µM (inactive)
CN(C)CCNC(=O)c1ccccc1Nc1c(Cl)cccc1Cl	–	14.1 µM (inactive)	15.1 µM (inactive)	17.1 µM (inactive)	12.7 µM (inactive)	8.2 µM (inactive)	2.89 µM (inactive)	16.1 µM (inactive)	–	13.1 µM (inactive)	13.7 µM (inactive)	11.6 µM (inactive)	–	16.1 µM (inactive)	12.6 µM (inactive)	–
Cc1cc(Cl)ccc1NC(=O)CCCC(=O)C1CCC/C1=N\NC(=O)CC#N (stereo not drawn)	> 100 µM (inactive)	> 100 µM (inactive)	> 100 µM (inactive)	> 100 µM (inactive)	> 100 µM (inactive)	> 100 µM (inactive)	> 100 µM (inactive)	> 100 µM (inactive)	> 100 µM (inactive)	> 100 µM (inactive)	> 100 µM (inactive)	> 100 µM (inactive)	> 100 µM (inactive)	> 100 µM (inactive)	–	> 100 µM (inactive)
Cc1cc2c(c(C(=O)O)c1C)-c1cccc(Cl)c1C2=O	> 100 µM (inactive)	> 100 µM (inactive)	> 100 µM (inactive)	> 100 µM (inactive)	> 100 µM (inactive)	> 100 µM (inactive)	> 100 µM (inactive)	> 100 µM (inactive)	> 100 µM (inactive)	> 100 µM (inactive)	> 100 µM (inactive)	> 100 µM (inactive)	> 100 µM (inactive)	> 100 µM (inactive)	–	–
CN(C)C(c1ccccc1)C(O)c1ccccc1 (stereo not drawn)	> 100 µM (inactive)	> 100 µM (inactive)	> 100 µM (inactive)	> 100 µM (inactive)	> 100 µM (inactive)	> 100 µM (inactive)	–	> 100 µM (inactive)	> 100 µM (inactive)	> 100 µM (inactive)	> 100 µM (inactive)	> 100 µM (inactive)	> 100 µM (inactive)	> 100 µM (inactive)	–	–
